Assay results taken from patent US20250319067A1, “Improved Pharmacokinetics of Tryptamine Prodrugs” (Reunion Neuroscience, Inc., priority 2023, published 2025).
Like-named read-outs stand apart in the source and are kept apart here.

Tests used:
[1] = system: rat hepatocytes; assay: Hepatocyte intrinsic clearance, rat; type: in vitro ADME
Source text: (§1) In human, rat, rabbit, dog and monkey hepatocytes, the metabolite profile of RE104 was qualitatively similar across these species with only minor differences.

[2] = system: human hepatocytes; assay: Hepatocyte intrinsic clearance, human; type: in vitro ADME
Source text: as §1

[3] = Prodrug cleavage in rat plasma; type: in vitro ADME; settings: 37° C.
Protocol: (§2) Mean values from 3 replicate assays are reported. See the Supplemental Methods for additional details.
(§3) Triplicate aliquots (50 μL) of each spiked plasma solution were immediately added to 200 μL of ice-cold methanol/acetonitrile solution (50:50 v/v) containing the internal standards to generate time zero samples. Spiked plasma solutions were incubated at 37° C. in an orbital shaker set to 75 rpm, and 50-μL samples were taken in triplicate after 30 minutes and 1, 2, and 4 hours of incubation. Each sample was immediately added to 200 μL ofice-cold methanol/acetonitrile solution containing the internal standard(s) to terminate the reaction. Samples were mixed by vortex and then stored at −80° C. until analysis.
(§4) Calibration standards were prepared in plasma for each species and analyzed in batches by LC-MS/MS. Sample batches consisted of 3 replicates of a system suitability standard (containing the analyte and internal standard), the appropriate calibration standards in ascending order including a blank sample without internal standard, a zero sample (with internal standard), and at least 6 nonzero standards and the assay samples, followed by the 3 replicates of the system suitability sample.

[4] = Prodrug cleavage in human plasma; type: in vitro ADME; settings: human plasma, 37° C.
Protocol: as §2, §3, §4

[5] = Conversion in aqueous solution; type: physicochemical; settings: as a function of pH
[6] = Metabolite profiling in monkey plasma after SC RE104; type: in vivo, cynomolgus monkey; settings: pooled plasma 0 to 12 hours post dose, SC 0.5 mg/kg RE104
Source text: Blood samples were centrifuged to obtain plasma.

[7] = system: healthy females; assay: Phase 1 FIH study: Mystical Experience Questionnaire (MEQ30); type: in vivo, human
Protocol: (§5) The study was a double-blind, randomized, placebo-controlled Phase 1 single ascending dose study in up to 6 cohorts in healthy females. Eligibility was assessed during a screening period of up to 28 days prior to enrollment. For the treatment period, subjects were admitted to the clinical research unit (CRU) one day prior to the dosing (Day −1). On Day 1, all subjects will received the assigned SC dose of RE104 HCl or placebo in a fed state (after domiciling overnight and consuming a planned evening meal on Day −1 and morning meal on Day 1 while at the CRU). Subjects were allowed to select snacks from a planned menu from 4 hours following dosing. Subjects were discharged from the clinic on Day 2 (−24 hours post-dose) after all required study procedures were completed and if deemed medically fit. Subjects returned to the clinic on Day 10 (±2 days) for a follow up visit.
The Mystical Experience Questionnaire (MEQ30) is a validated questionnaire that assesses individual episodes of a mystical experience produced by classic hallucinogens (Barrett et al. 2015). The validated MEQ30 uses thirty questions across 4 areas of experience: (i) Mystical (including items concerning internal unity, external unity, noetic quality, and sacredness); (ii) Positive mood; (iii) Transcendence of time and space; and (iv) Ineffability. The subjects will be asked to rate each item of the MEQ30 on a 6-point scale. FIG. 3 sets out the revised MEQ30 that was used.

[8] = Phase 1 FIH study: plasma pharmacokinetics (LC-MS/MS); type: in vivo; settings: human; for Cmax / Tmax / half-life: female, plasma; for half-life: read-out: t1/2, mean (converted)
Protocol: as §5
The concentrations of RE104 and isoprocin in plasma were determined using a validated Liquid chromatography tandem mass spectrometry (LC-MS/MS) assay.

[9] = molecular target: human recombinant 5-HT2A receptors (Homo sapiens, UniProt P28223); assay: 5-HT2A agonist radioligand binding assay ([125I]DOI)
Protocol: Increasing concentrations of RE104 were incubated with 0.2 nM [^125I]DOI in CHO cell cultures expressing human recombinant 5-HT2B receptors.
Radioligand concentration was measured by scintillation counting; compound binding was calculated as percent inhibition of the binding of [^125I]DOI. In agonist activity assays, test concentrations of RE104 were incubated with HEK-293 cells expressing human recombinant 5-HT2A receptors; IP1 production was detected using homogeneous time-resolved fluorescence. Activation was calculated as a percentage of the response to the positive control (10 μM 5-HT).
Inhibition constants were calculated by using the Cheng-Prusoff equation Ki=IC50/(1+L/KD), where L=radioligand concentration and KD=radioligand affinity for the receptor (determined with a Scatchard plot). In the functional activity assay test concentrations of RE104 were 10 nM, 30 nM, 100 nM, 300 nM, 1 μM, 3 μM, 10 μM, and 30 μM. EC50 and IC50 values were determined by nonlinear regression analysis of the concentration-response curves generated with mean replicate values using Hill equation curve fitting.

[10] = GLP 14-day extended single SC dose toxicity study in dogs; settings: beagle, dog, sc
[11] = system: dogs; assay: as above
[12] = Rat PK after single IV or SC RE104 HCl 2 mg/kg (Example 1); settings: plasma, sc, 2 mg/kg
[13] = Rat plasma PK after IV, PO, SC RE104 or 4-OH-DiPT (Example 3); settings: 2 mg/kg RE104 IV, vs AUC0-- of equimolar IV 4-OH-DiPT
Protocol: The concentration of test compounds was determined in plasma by LC-MS/MS. […] Pharmacokinetic parameters for each analyte and route of administration were estimated from the plasma concentration-versus-time curves for each animal. Head-twitch response (HTR), also referred to as wet dog shakes, was assessed by observing rats for automatisms consisting of rapid and alternating head rotations (González-Maeso et al. and Halberstadt et al.); HTRs were manually counted using 10-minute intervals up to 2 hours after dosing and again at 3, 3.5, and 4 hours after dosing.
Pharmacokinetic parameters were calculated using Phoenix WinNonlin, version 6.3 or 8.2 (Certara, Princeton, NJ, USA).
For rat PK assessments, approximately 0.25 mL blood was serially collected at 8 time points over 6 hours (5, 15, 30, and 45 minutes, and 1, 2, 4, and 6 hours after dosing) via a surgically placed carotid artery catheter and immediately transferred to tubes containing K2EDTA on ice. For dog PK assessments, approximately 0.5 mL of blood was collected via superficial vein before dose and at 5 (for IV and SC injections only), 15, and 30 minutes and 1, 2, 4, 8, 16, 24, 48, and 72 hours post dose into tubes containing K2EDTA with 10 mM Dichlorvos as the anticoagulant and stabilizer, respectively. […]

human recombinant 5-HT2A receptors, sequence (P28223 whole entry): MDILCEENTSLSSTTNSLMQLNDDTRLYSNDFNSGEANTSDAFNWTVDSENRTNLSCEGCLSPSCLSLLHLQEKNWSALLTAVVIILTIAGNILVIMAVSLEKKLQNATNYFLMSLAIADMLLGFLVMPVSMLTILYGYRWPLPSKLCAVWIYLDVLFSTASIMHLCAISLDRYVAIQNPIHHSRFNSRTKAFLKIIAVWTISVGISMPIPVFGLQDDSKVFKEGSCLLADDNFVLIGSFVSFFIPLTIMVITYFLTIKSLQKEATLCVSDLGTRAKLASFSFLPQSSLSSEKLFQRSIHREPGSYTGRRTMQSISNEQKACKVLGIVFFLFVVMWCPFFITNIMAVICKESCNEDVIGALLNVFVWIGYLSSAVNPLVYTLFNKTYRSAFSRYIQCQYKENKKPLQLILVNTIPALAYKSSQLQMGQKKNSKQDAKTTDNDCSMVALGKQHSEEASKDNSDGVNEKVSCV

CC(C)N(CCc1c[nH]c2cccc(OC(=O)CCCC(=O)O)c12)C(C)C [RE104]
in vitro intrinsic clearance (CLint) [1]: 6.66 mL/hr/106 cells
in vitro intrinsic clearance (CLint) [2]: 3.45 mL/hr/106 cells
completeness of conversion [3]: > 95%
time of conversion to 4-OH-DiPT [3]: < 30 min
completeness of conversion [4]: > 95%
time of conversion to 4-OH-DiPT [4]: < 30 min
conversion in aqueous solution [5]: slow conversion
share of the total peak area [6]: 71.1%
Participants with MEQ total score ≥60% ([7]; RE104 5.5 mg, n 6): 0%
Participants with MEQ total score ≥60% ([7]; RE104 11 mg, n 6): 50%
Participants with MEQ total score ≥60% ([7]; RE104 22 mg, n 6): 16.7%
Participants with MEQ total score ≥60% ([7]; RE104 33 mg, n 9): 66.7%
Participants with MEQ total score ≥60% ([7]; RE104 38 mg, n 6): 83.3%
Participants with MEQ total score ≥60% ([7]; RE104 44 mg, n 3): 100%
Cmax ([8]; RE104 dose 5.5 mg SC (n = 6)): 173 ng/mL
Tmax ([8]; RE104 dose 5.5 mg SC (n = 6)): 25.2 min
half-life ([8]; RE104 dose 5.5 mg SC (n = 6)): 31.8 min
Cmax ([8]; RE104 dose 11 mg SC (n = 6)): 527 ng/mL
Tmax ([8]; RE104 dose 11 mg SC (n = 6)): 19.8 min
half-life ([8]; RE104 dose 11 mg SC (n = 6)): 28.8 min
Cmax ([8]; RE104 dose 22 mg SC (n = 6)): 788 ng/mL
Tmax ([8]; RE104 dose 22 mg SC (n = 6)): 22.8 min
half-life ([8]; RE104 dose 22 mg SC (n = 6)): 30 min
Cmax ([8]; RE104 dose 33 mg SC (n = 9)): 1460 ng/mL
Tmax ([8]; RE104 dose 33 mg SC (n = 9)): 15 min
half-life ([8]; RE104 dose 33 mg SC (n = 9)): 25.8 min
Cmax ([8]; RE104 dose 38 mg SC (n = 6)): 1250 ng/mL
Tmax ([8]; RE104 dose 38 mg SC (n = 6)): 22.8 min
half-life ([8]; RE104 dose 38 mg SC (n = 6)): 38.4 min
Cmax ([8]; RE104 dose 44 mg SC (n = 3)): 1800 ng/mL
Tmax ([8]; RE104 dose 44 mg SC (n = 3)): 25.2 min
half-life ([8]; RE104 dose 44 mg SC (n = 3)): 31.2 min
time after administration by which not detectable in plasma ([8]; any dose): ≤ 5 h
IC50 [9]: 1600 nM
Ki ([9]; read-out: binding Ki at the 5-HT2A receptor, radioligand inhibition binding, HEK-293 cells): 4.3 µM
AUC(0-t) ([10]; plasma, 8 mg/kg): 4540 ng·h/mL
Cmax ([10]; plasma, 8 mg/kg): 3300 ng/mL
NOAEL at 14 days ([10]; both, in vivo): 8 mg/kg
1/10 of HED ([11]; dog): 0.44 mg/kg
1/10 of Human BSA dose ([11]; dog): 25.9 mg
Human BSA dose ([11]; dog): 160 mg/m^2
safety margin relative to proposed starting dose ([11]; dog HED vs 5 mg (zwitterion)): approximately 53 fold
safety margin relative to proposed maximum dose ([11]; dog HED vs 48 mg (zwitterion)): ~5 fold
HED ([11]; dog NOAEL, BSA conversion factors): 4.4 mg/kg
Human BSA dose ([11]; dog, based on a BSA of 1.62 m^2): 259 mg
HED of 8 mg/kg in the dog ([11]; expressed as zwitterion, 60 kg human, BSA conversion): approximately 267 mg
bioavailability [12]: ~100%
fm (fraction metabolized) [13]: 96.7%
